{
  "source": "patent US10590393B2",
  "about": "“Retinoic acid enhanced human stem cell derived blood brain barrier model” (Wisconsin Alumni Research Foundation, priority 2012, dated 2020)",
  "type_in_all_cases": "cell-based, human",
  "key": {"[1]": {"tested_on": "efflux transporter genes in IMR90-4-derived BMECs", "experiment": "qPCR of efflux transporter gene expression", "details": "compared to untreated samples", "description": "Cells were washed once with PBS and dissociated with ACCUTASE (Invitrogen). Total RNA was extracted using an RNEASY Mini Kit (Qiagen) according to the manufacturer's instructions and quantified using a NanoDrop® ND-1000. cDNA was generated from 1 μg of total RNA using Omniscript reverse transcriptase (Qiagen) and an oligo-dT primer (Invitrogen). qPCR was conducted using 1 μL of cDNA and iQ SYBR Green Mastermix (Bio-Rad) on an iCycler (Bio-Rad). Relative expression was quantified between samples using the comparative cycle threshold (Ct) method with glyceraldehyde-3-phosphate dehydrogenase (GAPDH) as the housekeeping gene. […] Primer sequences were as previously reported."}, "DF19-9-11T-derived BMECs [2]": {"tested_on": "DF19-9-11T-derived BMECs", "experiment": "TEER of RA-treated DF19-9-11T-derived BMECs", "description": "IMR90-4 and DF19-9-11T hiPSCs and H9 hESCs were maintained between passages 26-42 on […] (BD Biosciences) in mTeSR1™ medium ([…] Technologies) or on irradiated mouse embryonic fibroblasts (MEFs) in standard unconditioned medium (Dulbecco's Modified Eagle's Medium [DMEM]/Ham's F12 containing 20% Knockout Serum Replacer (Invitrogen), 1×MEM nonessential amino acids (Invitrogen), 1 mM L-glutamine (Sigma), 0.1 mM β-mercaptoethanol (Sigma), and human basic fibroblast growth factor (bFGF; 100 ng/mL for hiPSCs and 4 ng/mL for hESCs; Waisman Clinical Biomanufacturing Facility, University of Wisconsin-Madison)). Prior to differentiation, cells were passaged onto Matrigel (BD Biosciences) in mTeSR1 medium ([…] Technologies). After 2-3 days in mTeSR1, medium was switched to unconditioned medium (UM) lacking bFGF for 6 days. Human endothelial serum-free medium (hESFM; Invitrogen) supplemented with 20 ng/mL bFGF (R&D Systems) and 1% platelet-poor plasma derived bovine serum (Biomedical Technologies, Inc.) was then added for an additional 2-4 days.\nAll-trans RA (Sigma) was included at concentrations of 1-10 μM depending on the experiment. Equivalent DMSO was used as a vehicle control in some experiments. Cells were then dissociated with Versene (Invitrogen) and plated onto 12-well tissue culture polystyrene plates or 1.12 cm^2 Transwell-Clear® permeable inserts (0.4 μm pore size) coated with a mixture of collagen IV (400 μg/mL; Sigma) and fibronectin (100 μg/mL; Sigma). Culture plates were incubated with the coating for at least 30 min at 37° C., while the inserts were incubated for a minimum of 4 h at 37° C. hPSC-derived BMECs were then cultured in EC medium overnight (with or without RA). […] Also, our previous study used hPSCs exclusively maintained on MEFs.\nFIG. 5 dictates the timing of co-culture experiments. […] Trans-endothelial electrical resistance (TEER) was measured immediately prior to co-culture using an EVOM voltohmmeter (World Precision Instruments, Sarasota, Fla., USA) and approximately every 24 h thereafter as necessary."}, "DF19-9-11T-derived BMECs [3]": {"tested_on": "DF19-9-11T-derived BMECs", "experiment": "Efflux transporter substrate accumulation", "details": "due to RA treatment", "description": "(§1) hiPSC-derived BMECs differentiated in the presence or absence of RA were subcultured onto 12-well plates in EC medium with 10 μM RA or equivalent DMSO depending on the differentiation condition. […] Cells were washed three times with phosphate-buffered saline (PBS) and then lysed with PBS containing 5% Triton X-100 (TX-100; Fisher). Fluorescence (485 nm excitation and 530 nm emission) was measured using a plate reader and radioactivity was measured on a scintillation counter. Fluorescence/radioactivity was normalized on a per cell basis by counting trypsin-dissociated cells on a hemacytometer. Duplicate or triplicate wells were used for each condition to calculate mean and standard deviation. Each experiment was conducted twice to ensure biological reproducibility."}, "IMR90-4-derived BMECs": {"tested_on": "IMR90-4-derived BMECs", "experiment": "Efflux transporter substrate accumulation", "details": "10 μM RA vs. DMSO-treated controls; 1 h at 37° C.", "description": "as §1"}},
  "note": "Values joined by “and” are separate entries in the source; they are usually repeats but may differ in a detail not shown here. Equal values may be shown once.",
  "data": [
    {"smiles": "CC1=C(/C=C/C(C)=C/C=C/C(C)=C/C(=O)O)C(C)(C)CCC1", "note": "[RA, retinoic acid]", "values": [
      {"measurement": "ABCB1 (p-glycoprotein) upregulation, ΔΔCt", "setting": "[1]", "result": "1.6±0.4"},
      {"measurement": "ABCC1 (MRP1) upregulation, ΔΔCt", "setting": "[1]", "result": "1.97±0.71"},
      {"measurement": "ABCC2 (MRP2) upregulation, ΔΔCt", "setting": "[1]", "result": "1.3±0.31"},
      {"measurement": "ABCC5 (MRP5) upregulation, ΔΔCt", "setting": "[1]", "result": "0.9±0.29"},
      {"measurement": "ABCG2 (BCRP) upregulation, ΔΔCt", "setting": "[1]", "result": "1.8±0.15"},
      {"measurement": "Maximum TEER", "setting": "DF19-9-11T-derived BMECs [2]; subculture: pericytes, co-culture phase: differentiated NPCs (11 days), 1% PDS", "result": "4738±303 Ω × cm^2 and 4738 ± 303 (2) Ω × cm^2"},
      {"measurement": "Average TEER", "setting": "DF19-9-11T-derived BMECs [2]; t = 24 h, between biological replicates", "result": "1707 ± 417 Ω × cm^2"},
      {"measurement": "Maximum TEER", "setting": "DF19-9-11T-derived BMECs [2]; t = 24 h, triplicate filters", "result": "1968±288 Ω × cm^2"},
      {"measurement": "reduction in rhodamine 123 accumulation", "setting": "DF19-9-11T-derived BMECs [3]", "result": 1.5, "unit": "fold"},
      {"measurement": "decrease of DCFDA accumulation", "setting": "IMR90-4-derived BMECs", "result": 2.9, "unit": "fold"},
      {"measurement": "decrease of colchicine accumulation", "setting": "IMR90-4-derived BMECs", "result": 2.4, "unit": "fold"},
      {"measurement": "decrease of doxorubicin accumulation", "setting": "IMR90-4-derived BMECs", "result": 1.6, "unit": "fold"},
      {"measurement": "decrease of rhodamine 123 accumulation", "setting": "IMR90-4-derived BMECs", "result": 1.4, "unit": "fold"}
    ]}
  ]
}
